In the oligonucleotide strings, read from the 5' end, every base follows the letter of its sugar. An asterisk marks phosphorothioate; unmarked linkages are phosphodiester. Other units and linkages are bracketed, terminal groups are in braces. A string of capitals states the bases alone. e = 2'-O-(2-methoxyethyl) (MOE); [5mC] = 5-methylcytosine; d = 2'-deoxy (DNA)
Test system: human apolipoprotein B mRNA
Experiment: Inhibition of human apolipoprotein B mRNA levels in HepG2 cells, quantitative real-time PCR
Type: cell-based
Conditions: for % INHIB / % Change in apolipoprotein B mRNA expression / % INHIB 50 nm / % INHIB 150 nm / % inhibition of apolipoprotein B mRNA levels: HepG2 cells; for % INHIB (inhibition of human apolipoprotein B mRNA levels): HepG2 cells treated with 150 nM of compound, quantitative real-time PCR; for % Change in apolipoprotein B mRNA expression: 24 hour (Table 41); for % inhibition of apolipoprotein B mRNA levels: normalized to untreated control, average of two experiments
Method in brief: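 HepG2 cells at 80% confluency were transfected with antisense oligonucleotide using 3.75 μg/mL Lipofectin in Opti-MEM for 4-7 h and harvested 16-24 h after treatment. Apolipoprotein B mRNA was measured by real-time RT-PCR and normalized to GAPDH or RiboGreen total RNA. Percent inhibition came from untreated-control standard curves.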

[1] = human apolipoprotein B mRNA, oligonucleotides targeting genomic sequence SEQ ID NO 334, averages from two experiments
[2] = Table 15, 150 nM, averages from two experiments

| Substance | % INHIB [1] [%] | % INHIB (inhibition of human apolipoprotein B mRNA levels) (averages from two experiments) [%] | other results |
| --- | --- | --- | --- |
| 301061 (e[5mC]*eA*eT*eG*eA*d[5mC]*dT*dT*dA*d[5mC]*d[5mC]*dT*dG*dG*dA*e[5mC]*eA*eT*eG*eG; antisense) [compound 301061] | 52 | – | – |
| 271011 (antisense eG*eT*e[5mC]*eT*eG*dG*d[5mC]*dA*dA*dT*d[5mC]*d[5mC]*d[5mC]*dA*dT*eG*eT*eT*e[5mC]*eT) [compound 271011] | – | 51 | – |
| 281604 (antisense e[5mC]*eT*eG*eA*eG*dT*dT*d[5mC]*dA*dA*dG*dA*dT*dA*dT*eT*eG*eG*e[5mC]*eA) [compound 281604] | – | 78 | – |
| 301148 (eA*eG*eA*eA*eA*dT*dT*dT*d[5mC]*dA*d[5mC]*dT*dA*dG*dA*eT*eA*eG*eA*eT; antisense) [compound 301148] | 31 | – | – |
| 301182 (antisense e[5mC]*e[5mC]*eA*eA*e[5mC]*dT*d[5mC]*d[5mC]*d[5mC]*d[5mC]*d[5mC]*dT*dT*dT*d[5mC]*eT*eT*eT*eG*eT) [compound 301182] | 37 | – | – |
| 281596 (eT*eG*eA*e[5mC]*eT*dG*d[5mC]*dT*dT*d[5mC]*dA*dT*d[5mC]*dA*d[5mC]*eT*eG*eA*eG*eG; antisense) [compound 281596] | – | 77 | – |
| 281605 (antisense e[5mC]*eT*eT*e[5mC]*e[5mC]*dA*dA*dG*d[5mC]*d[5mC]*dA*dA*dT*d[5mC]*dT*e[5mC]*eG*eA*eT*eG) [compound 281605] | – | 82 | – |
| 271022 (antisense eG*eA*eT*eA*eG*dA*dA*dT*dA*dT*dT*dG*d[5mC]*dT*d[5mC]*eT*eG*e[5mC]*eA*eA) [compound 271022] | – | 100 | – |
| 301076 (e[5mC]*e[5mC]*eA*eG*eT*dA*dT*dT*dT*d[5mC]*dA*d[5mC]*dG*d[5mC]*d[5mC]*eA*eA*eT*e[5mC]*e[5mC]; antisense) [compound 301076] | 36 | – | – |
| 301222 (antisense eT*e[5mC]*eT*eA*eG*dA*dG*dG*dT*dT*dT*dT*dG*d[5mC]*dT*eG*eT*eG*e[5mC]*e[5mC]) [compound 301222] | – | – | % INHIB [2]: 14% |
| 301137 (eA*eG*eT*eG*eG*dA*dA*dG*dT*dT*dT*dG*dG*dT*d[5mC]*eT*e[5mC]*eA*eT*eT; antisense) [compound 301137] | 41 | – | – |
| 281607 (antisense e[5mC]*e[5mC]*eA*eG*eT*dT*d[5mC]*dA*dG*d[5mC]*d[5mC]*dT*dG*d[5mC]*dA*eT*eG*eT*eT*eG) [compound 281607] | – | 84 | – |
| 301085 (antisense eT*eG*eG*eG*eA*d[5mC]*dT*dT*dA*d[5mC]*d[5mC]*dA*dT*dG*d[5mC]*e[5mC]*eT*eT*eT*eG) [compound 301085] | 11 | – | – |
| 147809 (antisense e[5mC]*e[5mC]*e[5mC]*eA*eG*dT*dG*dA*dT*dA*dG*d[5mC]*dT*d[5mC]*dT*eG*eT*eG*eA*eG) [compound 147809] | – | – | % INHIB (Table 1, 150 nM, averages from two experiments): 60% |
| 301224 (antisense eA*eA*eA*eT*e[5mC]*dA*d[5mC]*dA*d[5mC]*dT*dA*dT*dG*dT*dG*eT*eT*e[5mC]*eT*eA) [compound 301224] | – | – | % INHIB [2]: 33% |
| 332777 (antisense GCCTCAGTCTGCTTCGCA; sugars from the 5' end e5 d10 e3, all phosphorothioate, methylation of C not given here) [compound 332777] | – | – | % Change in apolipoprotein B mRNA expression (10 nM): −27%; % Change in apolipoprotein B mRNA expression (50 nM): −53%; % Change in apolipoprotein B mRNA expression (150 nM): -80% |
| 301103 (antisense eT*e[5mC]*eT*eA*eA*dG*dA*dG*dG*dT*dA*dG*dA*dG*d[5mC]*eT*eA*eA*eA*eG) [compound 301103] | 7 | – | – |
| 301120 (antisense eT*eA*eG*eG*e[5mC]*dA*dA*dA*dG*dG*dA*d[5mC]*dA*dT*dG*eA*eA*eT*eA*eG) [compound 301120] | 30 | – | – |
| 301183 (antisense eT*e[5mC]*eT*eG*eG*dG*d[5mC]*d[5mC]*dA*dG*dG*dA*dA*dG*dA*e[5mC]*eA*e[5mC]*eG*eA) [compound 301183] | 68 | – | – |
| 301177 (antisense eT*eG*eA*eA*eG*dA*d[5mC]*dA*dG*dG*dG*dA*dG*d[5mC]*d[5mC]*eA*e[5mC]*e[5mC]*eT*eA) [compound 301177] | 40 | – | – |
| 271043 (e[5mC]*e[5mC]*e[5mC]*eA*eG*dT*dG*dG*dT*dA*d[5mC]*dT*dT*dG*dT*eT*eG*eA*e[5mC]*eA; antisense) [compound 271043] | – | 68 | – |
| 308626 (eA*eG*eT*e[5mC]*eT*dG*d[5mC]*dT*dT*d[5mC]*dG*d[5mC]*dG*d[5mC]*d[5mC]*eT*eT*e[5mC]*eT*eG; antisense) [compound 308626] | – | – | % INHIB 50 nm (Table 13 gene walk, 50 nM, averages from two experiments): 38%; % INHIB 150 nm (Table 13 gene walk, 150 nM, averages from two experiments): 94% |
| 301020 (eG*eG*e[5mC]*eG*eG*dG*d[5mC]*dT*d[5mC]*d[5mC]*dT*d[5mC]*dA*dG*d[5mC]*eG*eG*e[5mC]*eA*eG; antisense) [compound 301020] | – | 85 | – |
| 281641 (e[5mC]*e[5mC]*eG*eA*eA*d[5mC]*d[5mC]*d[5mC]*dT*dT*dG*dA*d[5mC]*dA*dT*e[5mC]*eT*e[5mC]*e[5mC]*eT; antisense) [compound 281641] | – | 72 | – |
| 308651 (antisense GCCTCAGTCTGCTTCGCGCC; 7-10-3 2'-MOE gapmer, phosphorothioate, chemistry not fully specified) [compound 308651] | – | – | % inhibition of apolipoprotein B mRNA levels (12.5 nM oligonucleotide): 57%; % inhibition of apolipoprotein B mRNA levels (37 nM oligonucleotide): 76%; % inhibition of apolipoprotein B mRNA levels (75 nM oligonucleotide): 84%; % inhibition of apolipoprotein B mRNA levels (150 nM oligonucleotide): 90%; % inhibition of apolipoprotein B mRNA levels (300 nM oligonucleotide): 88%; % INHIB 50 nm (Table 17 variable gap, 50 nM, averages from three experiments): 87%; % INHIB 150 nm (Table 17 variable gap, 150 nM, averages from three experiments): 88% |
| 308649 (antisense AGGTTACCAGCCACATGCAG; 6-10-4 2'-MOE gapmer, phosphorothioate, chemistry not fully specified) [compound 308649] | – | – | % INHIB 50 nm (50 nm oligonucleotide, variable deoxy gap position): 68%; % INHIB 150 nm (150 nm oligonucleotide, variable deoxy gap position): 91% |
| 281636 (antisense eG*e[5mC]*eA*eA*eG*dA*dG*dT*d[5mC]*d[5mC]*dA*d[5mC]*d[5mC]*dA*dA*eT*e[5mC]*eA*eG*eA) [compound 281636] | – | 68 | – |
| 281622 (antisense eA*eG*e[5mC]*eA*e[5mC]*d[5mC]*dA*dG*dG*dA*dG*dA*d[5mC]*dT*dA*e[5mC]*eA*e[5mC]*eT*eT) [compound 281622] | – | 88 | – |
| 308614 (eT*eT*eT*eA*eG*dG*dT*dT*dA*d[5mC]*d[5mC]*dA*dG*d[5mC]*d[5mC]*eA*e[5mC]*eA*eT*eG; antisense) [compound 308614] | – | – | % INHIB 50 nm (Table 11 gene walk, 50 nM, averages from two experiments): 74%; % INHIB 150 nm (Table 11 gene walk, 150 nM, averages from two experiments): 92% |
